In brackets after ≈: the same amount, converted by molar mass.
Tests used:
[1] = target: T1, 3-phosphoinositide-dependent protein kinase 1 (Homo sapiens, UniProt O15530); assay: Inhibition of human His6-tagged PDK1 using biotinylated PDKtide as substrate after 60 mins by topcount method
T1 sequence (O15530 whole entry): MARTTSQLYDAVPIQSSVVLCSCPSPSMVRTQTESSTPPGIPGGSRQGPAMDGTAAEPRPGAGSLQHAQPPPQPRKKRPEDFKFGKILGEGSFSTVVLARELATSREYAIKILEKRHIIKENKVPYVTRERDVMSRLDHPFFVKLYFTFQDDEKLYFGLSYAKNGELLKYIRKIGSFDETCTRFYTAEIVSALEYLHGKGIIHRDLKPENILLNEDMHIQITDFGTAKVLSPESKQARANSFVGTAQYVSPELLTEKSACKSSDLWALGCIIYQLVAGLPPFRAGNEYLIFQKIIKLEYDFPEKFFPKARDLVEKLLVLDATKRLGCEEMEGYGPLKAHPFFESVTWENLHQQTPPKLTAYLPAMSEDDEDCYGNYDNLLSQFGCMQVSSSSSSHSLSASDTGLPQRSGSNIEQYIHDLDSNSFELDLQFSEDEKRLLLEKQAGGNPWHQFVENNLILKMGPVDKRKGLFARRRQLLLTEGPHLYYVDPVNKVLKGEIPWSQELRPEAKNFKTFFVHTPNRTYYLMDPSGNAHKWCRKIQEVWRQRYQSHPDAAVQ

[2] = target: T1, 3-phosphoinositide-dependent protein kinase 1; assay: Inhibition of PDK1 in human PC3 cells assessed as reduction in AKT Thr308 phosphorylation after 45 mins; type: cell-based, PC-3
[3] = Solubility of the compound; type: physicochemical
[4] = target: T2, Phosphatidylinositol 4,5-bisphosphate 3-kinase catalytic subunit alpha isoform (Homo sapiens, UniProt P42336); assay: Inhibition of PI3K alpha (unknown origin)
T2 sequence (P42336 whole entry, canonical isoform): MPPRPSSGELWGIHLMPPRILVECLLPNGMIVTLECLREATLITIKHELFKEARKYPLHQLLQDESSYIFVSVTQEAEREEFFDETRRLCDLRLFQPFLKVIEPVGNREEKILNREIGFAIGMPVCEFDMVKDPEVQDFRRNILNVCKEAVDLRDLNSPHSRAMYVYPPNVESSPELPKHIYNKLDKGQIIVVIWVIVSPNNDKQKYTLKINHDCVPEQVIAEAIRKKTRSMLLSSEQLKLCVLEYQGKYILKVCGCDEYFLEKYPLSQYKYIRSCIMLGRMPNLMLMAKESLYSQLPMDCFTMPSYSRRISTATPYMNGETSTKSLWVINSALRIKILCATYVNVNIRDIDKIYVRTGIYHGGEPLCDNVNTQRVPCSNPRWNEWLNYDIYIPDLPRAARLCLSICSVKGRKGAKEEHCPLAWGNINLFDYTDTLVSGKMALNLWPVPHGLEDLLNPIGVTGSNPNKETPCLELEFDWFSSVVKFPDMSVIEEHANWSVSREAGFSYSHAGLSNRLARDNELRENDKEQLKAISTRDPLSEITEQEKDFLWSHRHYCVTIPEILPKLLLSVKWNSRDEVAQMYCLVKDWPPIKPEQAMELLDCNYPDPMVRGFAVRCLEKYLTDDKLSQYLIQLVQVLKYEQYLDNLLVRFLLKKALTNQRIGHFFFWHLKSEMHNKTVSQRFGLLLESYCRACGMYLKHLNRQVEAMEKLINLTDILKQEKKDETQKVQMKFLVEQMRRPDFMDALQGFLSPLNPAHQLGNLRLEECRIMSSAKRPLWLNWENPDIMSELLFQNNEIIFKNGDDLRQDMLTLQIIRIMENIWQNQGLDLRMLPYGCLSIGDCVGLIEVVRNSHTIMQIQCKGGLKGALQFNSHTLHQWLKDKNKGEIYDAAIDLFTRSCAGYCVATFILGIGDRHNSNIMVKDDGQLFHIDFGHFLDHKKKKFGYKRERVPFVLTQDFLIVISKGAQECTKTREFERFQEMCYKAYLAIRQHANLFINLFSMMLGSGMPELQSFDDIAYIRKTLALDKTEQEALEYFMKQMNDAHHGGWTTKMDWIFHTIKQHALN

[5] = target: Phosphatidylinositol 4,5-bisphosphate 3-kinase catalytic subunit beta isoform (Homo sapiens, UniProt P42338); assay: Inhibition of PI3K beta (unknown origin)
Phosphatidylinositol 4,5-bisphosphate 3-kinase catalytic subunit beta isoform, sequence (P42338 whole entry, canonical isoform): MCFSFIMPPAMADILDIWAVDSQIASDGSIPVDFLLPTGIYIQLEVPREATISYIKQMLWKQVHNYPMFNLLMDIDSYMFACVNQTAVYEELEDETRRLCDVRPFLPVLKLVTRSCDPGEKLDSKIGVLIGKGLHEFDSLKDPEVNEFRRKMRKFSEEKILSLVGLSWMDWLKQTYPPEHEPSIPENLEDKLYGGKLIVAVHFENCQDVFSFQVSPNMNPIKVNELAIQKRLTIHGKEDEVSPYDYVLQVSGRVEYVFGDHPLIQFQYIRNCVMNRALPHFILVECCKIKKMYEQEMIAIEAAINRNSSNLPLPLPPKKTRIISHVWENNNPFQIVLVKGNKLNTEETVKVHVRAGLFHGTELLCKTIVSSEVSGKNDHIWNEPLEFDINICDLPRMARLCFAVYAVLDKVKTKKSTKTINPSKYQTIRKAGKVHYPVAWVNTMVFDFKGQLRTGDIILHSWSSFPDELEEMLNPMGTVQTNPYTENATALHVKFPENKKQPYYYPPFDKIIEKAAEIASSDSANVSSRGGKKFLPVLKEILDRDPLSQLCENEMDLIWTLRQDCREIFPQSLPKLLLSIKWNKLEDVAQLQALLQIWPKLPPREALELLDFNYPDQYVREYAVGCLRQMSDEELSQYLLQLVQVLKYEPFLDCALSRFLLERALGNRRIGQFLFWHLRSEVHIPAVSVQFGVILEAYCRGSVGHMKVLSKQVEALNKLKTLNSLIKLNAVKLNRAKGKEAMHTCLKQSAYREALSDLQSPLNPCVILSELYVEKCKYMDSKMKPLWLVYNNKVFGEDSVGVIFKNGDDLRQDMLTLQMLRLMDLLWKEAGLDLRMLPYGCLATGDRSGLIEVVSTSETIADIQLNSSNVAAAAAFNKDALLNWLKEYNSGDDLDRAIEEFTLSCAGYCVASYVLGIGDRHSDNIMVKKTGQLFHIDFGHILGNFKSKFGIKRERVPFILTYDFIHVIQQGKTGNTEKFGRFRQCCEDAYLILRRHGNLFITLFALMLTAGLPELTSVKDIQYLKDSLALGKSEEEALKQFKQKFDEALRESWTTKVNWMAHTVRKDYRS

[6] = target: T3, Phosphatidylinositol 4,5-bisphosphate 3-kinase catalytic subunit delta isoform (Homo sapiens, UniProt O00329); assay: Inhibition of PI3K delta (unknown origin)
T3 sequence (O00329 whole entry): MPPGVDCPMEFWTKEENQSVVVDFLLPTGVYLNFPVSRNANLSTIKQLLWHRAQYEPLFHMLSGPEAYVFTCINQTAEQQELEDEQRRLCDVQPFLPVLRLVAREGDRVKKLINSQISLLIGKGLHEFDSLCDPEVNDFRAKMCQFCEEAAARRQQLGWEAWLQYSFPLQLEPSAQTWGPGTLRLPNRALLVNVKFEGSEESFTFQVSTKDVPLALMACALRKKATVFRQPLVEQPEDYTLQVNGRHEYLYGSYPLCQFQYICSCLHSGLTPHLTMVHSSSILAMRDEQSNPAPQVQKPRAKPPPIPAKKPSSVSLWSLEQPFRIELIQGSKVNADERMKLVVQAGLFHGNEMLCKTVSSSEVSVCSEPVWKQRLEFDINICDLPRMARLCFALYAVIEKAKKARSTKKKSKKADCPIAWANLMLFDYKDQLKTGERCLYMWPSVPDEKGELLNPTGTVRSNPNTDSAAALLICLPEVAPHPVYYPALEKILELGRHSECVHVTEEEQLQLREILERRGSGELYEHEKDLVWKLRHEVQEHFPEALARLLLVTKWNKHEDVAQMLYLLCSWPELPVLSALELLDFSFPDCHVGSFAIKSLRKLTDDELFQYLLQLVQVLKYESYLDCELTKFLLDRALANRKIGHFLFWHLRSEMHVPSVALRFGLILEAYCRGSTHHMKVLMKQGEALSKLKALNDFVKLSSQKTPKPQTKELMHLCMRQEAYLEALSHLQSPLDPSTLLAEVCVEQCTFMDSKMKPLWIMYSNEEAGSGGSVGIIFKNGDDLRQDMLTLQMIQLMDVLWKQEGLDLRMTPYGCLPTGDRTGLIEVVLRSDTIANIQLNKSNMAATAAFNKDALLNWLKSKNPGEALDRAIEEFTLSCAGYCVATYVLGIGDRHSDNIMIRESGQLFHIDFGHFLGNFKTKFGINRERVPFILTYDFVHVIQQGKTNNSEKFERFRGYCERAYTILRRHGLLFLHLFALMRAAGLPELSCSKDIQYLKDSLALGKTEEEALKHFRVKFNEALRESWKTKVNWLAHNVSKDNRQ

[7] = target: Phosphatidylinositol 4,5-bisphosphate 3-kinase catalytic subunit gamma isoform (Homo sapiens, UniProt P48736); assay: Inhibition of PI3K gamma (unknown origin)
Phosphatidylinositol 4,5-bisphosphate 3-kinase catalytic subunit gamma isoform, sequence (P48736 whole entry, canonical isoform): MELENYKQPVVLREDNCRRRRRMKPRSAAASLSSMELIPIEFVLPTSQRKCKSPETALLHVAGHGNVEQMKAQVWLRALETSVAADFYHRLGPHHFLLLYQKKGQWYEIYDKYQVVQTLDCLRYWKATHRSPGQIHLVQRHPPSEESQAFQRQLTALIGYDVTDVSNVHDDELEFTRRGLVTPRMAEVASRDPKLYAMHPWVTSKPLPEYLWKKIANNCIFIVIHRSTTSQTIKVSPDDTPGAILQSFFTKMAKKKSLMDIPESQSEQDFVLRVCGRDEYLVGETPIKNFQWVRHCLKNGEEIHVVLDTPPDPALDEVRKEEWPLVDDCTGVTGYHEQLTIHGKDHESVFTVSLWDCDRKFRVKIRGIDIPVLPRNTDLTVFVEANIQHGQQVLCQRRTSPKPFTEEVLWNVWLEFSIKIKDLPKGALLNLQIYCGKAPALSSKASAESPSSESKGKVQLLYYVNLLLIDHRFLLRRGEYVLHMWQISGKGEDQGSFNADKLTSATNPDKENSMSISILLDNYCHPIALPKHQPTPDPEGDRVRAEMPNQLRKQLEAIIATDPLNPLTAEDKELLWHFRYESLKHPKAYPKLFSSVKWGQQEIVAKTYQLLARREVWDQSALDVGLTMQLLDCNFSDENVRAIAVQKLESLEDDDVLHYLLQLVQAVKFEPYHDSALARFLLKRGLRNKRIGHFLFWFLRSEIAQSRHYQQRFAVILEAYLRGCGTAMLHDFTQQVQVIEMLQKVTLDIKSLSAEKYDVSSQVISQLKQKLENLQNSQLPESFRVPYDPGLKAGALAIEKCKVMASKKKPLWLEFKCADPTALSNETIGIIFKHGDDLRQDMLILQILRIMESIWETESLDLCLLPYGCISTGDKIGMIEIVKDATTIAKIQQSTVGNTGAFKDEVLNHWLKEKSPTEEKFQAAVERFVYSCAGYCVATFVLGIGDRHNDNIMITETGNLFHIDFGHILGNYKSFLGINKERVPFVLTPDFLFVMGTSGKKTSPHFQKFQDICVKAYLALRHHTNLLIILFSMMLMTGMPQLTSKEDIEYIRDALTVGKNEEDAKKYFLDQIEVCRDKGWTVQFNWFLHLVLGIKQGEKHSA

[8] = Intrinsic clearance in human liver microsomes; type: ADME; settings: read-out: CLH
[9] = Intrinsic clearance in mouse liver microsomes; type: ADME; settings: read-out: CLH
[10] = species: Homo sapiens; assay: Selectivity ratio of IC50 for PI3K alpha (unknown origin) to IC50 for human His6-tagged PDK1
[11] = Efflux ratio of permeability from basolateral to apical over apical to basolateral side in human Caco2 cells; type: ADME, cell-based; settings: Caco-2
[12] = Permeability across apical to basolateral side in human Caco2 cells; type: ADME, cell-based; settings: Caco-2
[13] = target: T2, Phosphatidylinositol 4,5-bisphosphate 3-kinase catalytic subunit alpha isoform; assay: Inhibition of PI3K alpha (unknown origin) at 10 uM
[14] = target: T1, 3-phosphoinositide-dependent protein kinase 1; assay: Inhibition of human PDK1

| IC50 [1] [µM] | IC50 [2] [µM] | SMILES | also measured |
| --- | --- | --- | --- |
| > 10 |  | CCc1cc(-c2c[nH]c3nccc(Cl)c23)nc(N)n1 |  |
| > 10 | > 30 | CCc1cc(-c2c[nH]c3ncccc23)ncn1 |  |
| 1 | > 30 | NCCCCc1cc(-c2c[nH]c3ncccc23)nc(N)n1 |  |
| 2.4 | > 30 | CCc1cc(-c2c[nH]c3ncc(-c4ccnn4C)cc23)nc(N)n1 |  |
| 1.2 | > 30 | CCc1cc(-c2c[nH]c3ncccc23)nc(N)n1 |  |
| 0.39 | > 30 | NCCCc1cc(-c2c[nH]c3ncccc23)nc(N)n1 | solubility [3]: 12 µg/mL (≈ 44.7 µM) |
| 6.7 |  | Oc1ccc(-c2n[nH]c3cc(O)ccc23)cc1 |  |
| 0.26 | 26 | CCc1cc(-c2c[nH]c3ncc(-c4ccn[nH]4)cc23)nc(N)n1 | IC50 [4]: > 10 µM; IC50 [5]: > 30 µM; IC50 [6]: > 10 µM; IC50 [7]: > 10 µM |
| > 10 |  | CNc1nccc(-c2cn(CCOC)c3ncccc23)n1 |  |
| 3.5 | > 30 | CCc1cc(-c2c[nH]c3ncc(-c4ccccc4)cc23)nc(N)n1 |  |
| 0.082 | 14 | CCc1cc(-c2c[nH]c3ncc(-c4cnn(CCN(C)C)c4)cc23)nc(N)n1 | IC50 [4]: 3.9 µM; microsomal CLint [8]: < 10 µL/min/mg; IC50 [5]: > 30 µM; microsomal CLint [9]: 39 µL/min/mg; IC50 [6]: > 10 µM; IC50 [7]: > 10 µM; Ratio IC50 [10]: 48; Ratio [11]: 2.3; Papp A→B [12]: 7.3 ×10⁻⁶ cm/s |
| 0.085 | 11 | CCc1cc(-c2c[nH]c3ncc(-c4cnn(C)c4)cc23)nc(N)n1 | microsomal CLint [8]: > 55 µL/min/mg; microsomal CLint [9]: 71 µL/min/mg; IC50 [6]: > 10 µM; IC50 [7]: > 10 µM; inhibition [13]: 78%; Ratio [11]: 7.9; Papp A→B [12]: 5.4 ×10⁻⁶ cm/s |
| 0.17 | 21 | CCc1cc(-c2c[nH]c3ncc(-c4ccc(N)nc4)cc23)nc(N)n1 | IC50 [4]: > 10 µM; IC50 [5]: > 30 µM; IC50 [6]: > 10 µM; IC50 [7]: > 10 µM |
| > 10 |  | Nc1ncc(Br)c(-c2c[nH]c3ncccc23)n1 |  |
| 1.1 |  | Nc1ncc(-c2ccccc2)cc1-c1nc2ccccc2[nH]1 |  |
| 0.013 | 5.4 | CCc1cc(-c2c[nH]c3ncc(-c4cn[nH]c4)cc23)nc(N)n1 | IC50 [4]: 6 µM; microsomal CLint [8]: 52 µL/min/mg; IC50 [5]: > 30 µM; microsomal CLint [9]: > 70 µL/min/mg; IC50 [6]: > 30 µM; IC50 [7]: 7 µM; Ratio IC50 [10]: 460; Ratio [11]: 54.8; Papp A→B [12]: 0.89 ×10⁻⁶ cm/s |
| > 10 |  | Cc1nccc(-c2c[nH]c3ncccc23)n1 |  |
| 0.11 | 9.6 | CCc1cc(-c2c[nH]c3ncc(-c4cnn(CC(C)C)c4)cc23)nc(N)n1 | IC50 [4]: 4.7 µM; microsomal CLint [8]: > 55 µL/min/mg; IC50 [5]: > 30 µM; microsomal CLint [9]: 67 µL/min/mg; IC50 [6]: > 10 µM; IC50 [7]: > 10 µM; Ratio IC50 [10]: 42; Ratio [11]: 0.6; Papp A→B [12]: 27 ×10⁻⁶ cm/s |
| 12 |  | Nc1nccc(-c2c[nH]c3ccc(Br)cc23)n1 [MERIDIANIN C] |  |
| 0.5 | > 30 | CCc1cc(-c2c[nH]c3ncc(-c4cccnc4)cc23)nc(N)n1 |  |
| 2.2 | > 30 | CCCCCc1cc(-c2c[nH]c3ncccc23)nc(N)n1 |  |
| 1.8 | > 30 | CCCc1cc(-c2c[nH]c3ncccc23)nc(N)n1 |  |
| 2.7 | > 30 | CCc1cc(-c2c[nH]c3ncc(-c4c(C)nn(C)c4C)cc23)nc(N)n1 |  |
| > 10 |  | CCc1cc(-c2c(C)[nH]c3ncccc23)nc(N)n1 |  |
| 60 |  | Nc1nc2c3ccccc3nc(-c3ccccc3)n2n1 |  |
| 0.45 | > 30 | CCc1cc(-c2c[nH]c3ncc(-c4ccncc4)cc23)nc(N)n1 |  |
| 93 |  | COc1ccc2[nH]c(-c3cc[nH]n3)nc2c1 |  |
| 0.48 | > 30 | CCc1cc(-c2c[nH]c3ncc(Br)cc23)nc(N)n1 |  |
|  |  | Nc1nccc(-c2c[nH]c3cccc(O)c23)n1 [MERIDIANIN A] | IC50 [14]: 5.4 µM |
| 0.12 | 28 | CCc1cc(-c2c[nH]c3ncc(-c4ccco4)cc23)nc(N)n1 | IC50 [4]: > 10 µM; IC50 [6]: > 10 µM; IC50 [7]: > 10 µM |

— ChEMBL document CHEMBL3813616, “Discovery of novel 7-azaindoles as PDK1 inhibitors” (Bioorg Med Chem Lett, 2016)
